# The NIST ThermoML archive (doi:10.1016/j.jct.2018.08.005)
# Numbers after ± are expanded uncertainties.
# What was measured:
# [1] = molar heat capacity at constant pressure; conditions: 100 kPa, Liquid, DSC
# [2] = molar heat capacity at constant pressure; xn = mol fraction of the nth substance listed; conditions: 100 kPa, Liquid, DSC, x2 = 0
compound,measurement,setting,value
CCOC(F)(C(F)(F)C(F)(F)C(F)(F)F)C(F)(C(F)(F)F)C(F)(F)F (configuration not stated) [2-trifluoromethyl-3-ethoxydodecafluorohexane],molar heat capacity at constant pressure,[1]; 297.91 K,466.29 ± 27 J/K/mol
same,molar heat capacity at constant pressure,[1]; 307.79 K,472.92 ± 27 J/K/mol
same,molar heat capacity at constant pressure,[1]; 317.66 K,479.54 ± 27 J/K/mol
same,molar heat capacity at constant pressure,[1]; 327.54 K,486.58 ± 28 J/K/mol
same,molar heat capacity at constant pressure,[1]; 337.42 K,494.03 ± 28 J/K/mol
same,molar heat capacity at constant pressure,[1]; 347.29 K,500.66 ± 29 J/K/mol
same,molar heat capacity at constant pressure,[1]; 357.17 K,508.53 ± 29 J/K/mol
same,molar heat capacity at constant pressure,[1]; 367.05 K,517.23 ± 29 J/K/mol
same,molar heat capacity at constant pressure,[1]; 376.92 K,523.85 ± 30 J/K/mol
same,molar heat capacity at constant pressure,[1]; 386.8 K,531.72 ± 30 J/K/mol
CC(C)OC(C)C [diisopropyl ether],molar heat capacity at constant pressure,[1]; 290.5 K,211.5 ± 12 J/K/mol
same,molar heat capacity at constant pressure,[1]; 295.44 K,213.44 ± 12 J/K/mol
same,molar heat capacity at constant pressure,[1]; 300.38 K,215.28 ± 12 J/K/mol
same,molar heat capacity at constant pressure,[1]; 305.32 K,217.33 ± 12 J/K/mol
same,molar heat capacity at constant pressure,[1]; 310.26 K,219.37 ± 13 J/K/mol
same,molar heat capacity at constant pressure,[1]; 315.2 K,221.41 ± 13 J/K/mol
same,molar heat capacity at constant pressure,[1]; 320.13 K,223.46 ± 13 J/K/mol
same,molar heat capacity at constant pressure,[1]; 325.07 K,225.5 ± 13 J/K/mol
same,molar heat capacity at constant pressure,[1]; 330.01 K,227.65 ± 13 J/K/mol
same,molar heat capacity at constant pressure,[1]; 334.95 K,229.89 ± 13 J/K/mol
same,molar heat capacity at constant pressure,[1]; 339.89 K,232.04 ± 13 J/K/mol
CC(C)OC(C)C [diisopropyl ether] + CCOC(F)(C(F)(F)C(F)(F)C(F)(F)F)C(F)(C(F)(F)F)C(F)(F)F,molar heat capacity at constant pressure,[2]; 290.5 K,211.5 ± 12 J/K/mol
same,molar heat capacity at constant pressure,[2]; 295.44 K,213.44 ± 12 J/K/mol
same,molar heat capacity at constant pressure,[2]; 300.38 K,215.28 ± 12 J/K/mol
same,molar heat capacity at constant pressure,[2]; 305.32 K,217.33 ± 12 J/K/mol
same,molar heat capacity at constant pressure,[2]; 310.26 K,219.37 ± 13 J/K/mol
same,molar heat capacity at constant pressure,[2]; 315.2 K,221.41 ± 13 J/K/mol
same,molar heat capacity at constant pressure,[2]; 320.13 K,223.46 ± 13 J/K/mol
same,molar heat capacity at constant pressure,[2]; 325.07 K,225.5 ± 13 J/K/mol
same,molar heat capacity at constant pressure,[2]; 330.01 K,227.65 ± 13 J/K/mol
same,molar heat capacity at constant pressure,[2]; 334.95 K,229.89 ± 13 J/K/mol
same,molar heat capacity at constant pressure,[2]; 339.89 K,232.04 ± 13 J/K/mol
